Reference: US20230250096A1, “SUBSTITUTED PHENYL-1H-PYRROLO[2,3-c] PYRIDINE DERIVATIVES” (Janssen Pharmaceutica NV, priority 2021, published 2023)

Legend:
MEIS1 mRNA expression = MEIS1 mRNA expression assay (Quantigene Singleplex) in MOLM14 cells; format: cell-based, human; settings: 48 hours incubation
Procedure, shortened: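 Read-out: MEIS1 transcript counts, background-subtracted and divided by RPL28, expressed as fold change over DMSO-treated cells, then dose-response modelled for IC50. MOLM14 cells (3,750/well) received graded compound for 48 h before lysis and QuantiGene hybridization at 55 °C.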

[1] = target: T1, menin/MLL (terbium chelate-labeled menin, FITC-MBM1 peptide) (Homo sapiens, UniProt O00255, T541A); experiment: Menin/MLL homogenous time-resolved fluorescence (HTRF) assay; format: binding; settings: 30 min incubation
T1 construct: Menin (a.a 1-610-6xhis tag, 2.3 mg/mL in 20 mM Hepes)
T1 sequence (O00255 with tags, fused parts or gaps T541A): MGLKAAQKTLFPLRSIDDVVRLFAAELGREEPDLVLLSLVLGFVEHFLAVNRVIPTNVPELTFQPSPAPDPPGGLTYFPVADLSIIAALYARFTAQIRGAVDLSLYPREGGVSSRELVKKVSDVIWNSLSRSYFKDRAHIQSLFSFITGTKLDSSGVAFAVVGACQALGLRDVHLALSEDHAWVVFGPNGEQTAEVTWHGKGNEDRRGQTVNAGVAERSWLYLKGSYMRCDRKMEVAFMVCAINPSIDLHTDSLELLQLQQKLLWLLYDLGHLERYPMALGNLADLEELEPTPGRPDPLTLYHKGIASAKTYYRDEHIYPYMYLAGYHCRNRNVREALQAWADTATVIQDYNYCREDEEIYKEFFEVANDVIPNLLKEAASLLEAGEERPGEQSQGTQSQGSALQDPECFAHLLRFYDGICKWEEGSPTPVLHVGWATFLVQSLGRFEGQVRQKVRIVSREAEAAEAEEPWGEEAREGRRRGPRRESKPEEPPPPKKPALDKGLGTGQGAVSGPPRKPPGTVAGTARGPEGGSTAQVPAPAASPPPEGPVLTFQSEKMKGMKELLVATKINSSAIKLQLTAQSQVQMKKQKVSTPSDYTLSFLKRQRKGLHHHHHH
Procedure, shortened: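 Competition binding read by time-resolved FRET (FITC 520 nm over terbium 490 nm) after compound meets labeled menin 1-610-His […] for 30 min, then FITC-MBM1 (75 nM) for 15 min, ambient temperature, 0.5% DMSO. Eleven-point four-fold dilutions, usually starting at 10 μM, fitted to four-parameter curves for IC50.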

IC50 (MEIS1 mRNA expression; Homo sapiens, MOLM-14, 48 h) [nM] | IC50 [1] [nM] | IC50 (MEIS1 mRNA expression) [nM] | Compound
22 | 0.113 |  | Cc1cncc2c1c(CC1CCN(CC3CCN(C(=O)[C@@H](C)O)CC3)C1)cn2-c1ccc(F)cc1C(=O)N(C)C(C)C (single isomer, unassigned) [Compound 85]
 | 0.077 | 26 | CC(=O)N1CCC(CN2CC[C@@H](Cc3cn(-c4ccc(F)cc4C(=O)N4CCC5CC54)c4cncc(C)c34)C2)CC1 (single isomer, unassigned) [Compound 311b]
 | 0.094 | 12 | Cc1cncc2c1c(C[C@@H]1CCN(CC3CCNC(=O)CC3)C1)cn2-c1ccc(F)cc1C(=O)N1CCC[C@H]1C (single isomer, unassigned) [Compound 353a]
77 | 0.077 |  | COC(=O)[C@H]1CC[C@@H](CN2CC[C@@H](Cc3cn(-c4ccc(F)cc4C(=O)N(C)C(C)C)c4cncc(C)c34)C2)CC1 [Compound 153]
55 | 0.058 |  | CC(=O)N1CCC(CN2CC[C@@H](Cc3cn(-c4ccc(F)cc4C(=O)N4CC5CC4CO5)c4cncc(C)c34)C2)CC1 (stereo partly shown) [Compound 312]
29 | 0.055 |  | CC(=O)N1CCC(CN2CC[C@@H](Cc3cn(-c4ccc(F)cc4C(=O)N4[C@@H](C)CC[C@@H]4C)c4cncc(C)c34)C2)CC1 [Compound 316]
17 | 0.025 |  | Cc1cncc2c1c(CC1CN(CC3CCOCC3)C1)cn2-c1ccc(F)cc1C(=O)N1CCC[C@H]1C [Compound 279]
37 | 0.149 |  | Cc1cncc2c1c(CC1CN(CC3CCOCC3)C1)cn2-c1ccc(F)cc1C(=O)N1CCCC1CO (stereo not shown) [Compound 268]
12 | 0.034 |  | CNC(=O)[C@H]1CC[C@H](CN2CC(Cc3cn(-c4ccc(F)cc4C(=O)N(C)C(C)C)c4cncc(C)c34)C2)CC1 [Compound 74]
25 | 0.081 |  | CNC(=O)N1CCC(CN2CCC(Cc3cn(-c4ccc(F)cc4C(=O)N(C)C(C)C)c4cncc(C)c34)CC2)CC1 [Compound 202]
21 | 0.049 |  | Cc1cncc2c1c(C[C@@H]1CCN(CC3CCC(O)CC3)C1)cn2-c1ccc(F)cc1C(=O)N(C)C(C)C (single isomer, unassigned) [Compound 205a]
 | 0.425 | 77 | CC(=O)N1CCC(N2CC[C@H](Cc3cn(-c4ccc(F)cc4C(=O)N(C)C(C)C)c4cncc(C)c34)C2)CC1 (single isomer, unassigned) [Compound 81]
 | 0.032 | 113 | CC(=O)NC1CCC(N2CC[C@H](Cc3cn(-c4ccc(F)cc4C(=O)N(C)C(C)C)c4cncc(C)c34)C2)CC1 (stereo partly shown) [Compound 211]
21 | 0.042 |  | Cc1cncc2c1c(CC1CCN(CC3CCN(C(=O)[C@H](C)O)CC3)C1)cn2-c1ccc(F)cc1C(=O)N(C)C(C)C (single isomer, unassigned) [Compound 86]
107 | 0.085 |  | Cc1cncc2c1c(C[C@@H]1CCN([C@H](CO)C3CCCOC3)C1)cn2-c1ccc(F)cc1C(=O)N(C)C(C)C (single isomer, unassigned) [Compound 198b]
6 | 0.016 |  | CC(=O)N1CCN(CCCC(C(C)C)N2CCC(Cc3cn(-c4ccc(F)cc4C(=O)N(C)C(C)C)c4cncc(C)c34)C2)CC1 (single isomer, unassigned) [Compound 9a]
< 2.3 | 0.052 |  | CC(=O)N1C[C@@H]2CN([C@H]3C[C@@H](C(C(C)C)N4CC[C@H](Cc5cn(-c6ccc(F)cc6C(=O)N(C)C(C)C)c6cncc(C)c56)C4)C3)C[C@H]2C1 (mixture of isomers) [Compound 21]

IC50 (MEIS1 mRNA expression; Homo sapiens, MOLM-14, 48 h) [nM] | IC50 [1] [nM] | IC50 (MEIS1 mRNA expression) [nM] | Compound
338 | 0.327 |  | Cc1cncc2c1c(C[C@@H]1CCN(C[C@H]3CCCCN3)C1)cn2-c1ccc(F)cc1C(=O)N(C)C(C)C [Compound 199]
119 | 0.059 |  | CNC(=O)c1cncc(N2CCC(N3CC(Cc4cn(-c5ccc(F)cc5C(=O)N(C)C(C)C)c5cncc(C)c45)C3)CC2)n1 [Compound 75]
65 | 0.063 |  | Cc1cncc2c1c(C[C@@H]1CCN(C[C@@H]3CCOC3)C1)cn2-c1ccc(F)cc1C(=O)N(C)C(C)C (single isomer, unassigned) [Compound 190b]
322 | 0.115 |  | Cc1cncc2c1c(C[C@@H]1CCN(CC3CCNC(=O)C3)C1)cn2-c1ccc(F)cc1C(=O)N(C)C(C)C (mixture of isomers) [Compound 212]
11 | 0.072 |  | Cc1cncc2c1c(CC1CN(CC3CCC(O)CC3)C1)cn2-c1ccc(F)cc1C(=O)N(C)C(C)C (stereo not shown) [Compound 144]
 | 0.07 | 132 | CN=S(=O)(c1cc(F)ccc1-n1cc(CC2CCN(CC3CCOCC3)C2)c2c(C)cncc21)C(C)C (single isomer, unassigned) [Compound 77b]
43 | 0.069 |  | CON(C)C(=O)N1CCC(CN2CCC(Cc3cn(-c4ccc(F)cc4C(=O)N(C)C(C)C)c4cncc(C)c34)CC2)CC1 [Compound 203]
6 | 0.094 |  | COCCN(C)CCC[C@@H](C(C)C)N1CC[C@H](Cc2cn(-c3ccc(F)cc3C(=O)N(C)C(C)C)c3cncc(Cl)c23)C1 (single isomer, unassigned) [Compound 4b]
 | 0.065 | 115 | Cc1cncc2c1c(CC1CCN(CC3CCC(=O)N(C)CC3)C1)cn2-c1ccc(F)cc1C(=O)N(C)C(C)C (single isomer, unassigned) [Compound 184b]
 | 0.063 | 47 | CC(=O)NC1CCC(N2CC[C@@H](Cc3cn(-c4ccc(F)cc4C(=O)N(C)C(C)C)c4cncc(C)c34)C2)CC1 (stereo partly shown) [Compound 201]
 | 0.035 | 31 | Cc1cncc2c1c(C[C@@H]1CCN(CC3CCC(O)CC3)C1)cn2-c1ccc(F)cc1C(=O)N(C)C(C)C (single isomer, unassigned) [Compound 205b]
< 3.3 | 0.032 |  | CC(=O)N1C[C@@H]2CN(CCC[C@H](C(C)C)N3CC[C@H](Cc4cn(-c5ccc(F)cc5C(=O)N(C)C(C)C)c5cncc(Cl)c45)C3)C[C@H]2C1 (single isomer, unassigned) [Compound 19a]
5 | 0.075 |  | CC(=O)N1CCC(C(C)N2CCC(Cc3cn(-c4ccc(F)cc4C(=O)N(C)C(C)C)c4cncc(C)c34)C2)CC1 (single isomer, unassigned) [Compound 116a]
~154 | 0.101 |  | Cc1cncc2c1c(C[C@@H]1CCN(CC3CCN(C(=O)C(C)C)CC3)C1)cn2-c1ccc(F)cc1C(=O)N1CCC[C@H]1CO [Compound 328]
37 | 0.071 |  | CC(=O)N1CCC(CN2CC[C@@H](Cc3cn(-c4ccc(F)cc4C(=O)N4CCC[C@H]4C)c4cncc(C)c34)C2)CC1 [Compound 315]
136 | 0.191 |  | CN=S(=O)(c1cc(F)ccc1-n1cc(CC2CCN(CC3CCOCC3)C2)c2c(C)cncc21)C(C)C (stereo not shown) [Compound 77]
24 | 0.045 |  | CC(=O)N1CCC([C@H](CO)N2CC[C@@H](Cc3cn(-c4ccc(F)cc4C(=O)N(C)C(C)C)c4cncc(C)c34)C2)CC1 (single isomer, unassigned) [Compound 206a]

Compound | IC50 (MEIS1 mRNA expression; Homo sapiens, MOLM-14, 48 h) [nM] | IC50 [1] [nM] | IC50 (MEIS1 mRNA expression) [nM]
CC(=O)N1CC2CC(C1)C2N1CC[C@@H](Cc2cn(-c3ccc(F)cc3C(=O)N(C)C(C)C)c3cncc(C)c23)C1 (stereo partly shown) [Compound 209] | > 1000 | 0.202 | 
